# Results taken from PubChem BioAssay (NCI).
#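 In this assay, cells in 96-well plates receive the compound at five concentrations for 48 hours. Endpoints are linearly interpolated between the surrounding concentrations. At the GI50, growth is halved. TGI marks complete inhibition of growth.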
# Legend:
# Test in all cases: DTP human tumour cell line panel, 48 h
# OVCAR-4 ovarian = tested on: OVCAR-4 ovarian
# EKVX NSCLC = tested on: EKVX NSCLC
# A498 renal = tested on: A498 renal
# SNB-75 CNS = tested on: SNB-75 CNS
# HS 578T breast = tested on: HS 578T breast
# M14 melanoma = tested on: M14 melanoma
# BT-549 breast = tested on: BT-549 breast
# NCI/ADR-RES ovarian = tested on: NCI/ADR-RES ovarian
# LOX IMVI melanoma = tested on: LOX IMVI melanoma
# RXF 393 renal = tested on: RXF 393 renal
# NCI-H460 lung = tested on: NCI-H460 lung
# KM12 colon = tested on: KM12 colon
# OVCAR-3 ovarian = tested on: OVCAR-3 ovarian
# MALME-3M melanoma = tested on: MALME-3M melanoma
# SW-620 colon = tested on: SW-620 colon
# 786-0 renal = tested on: 786-0 renal
# ACHN renal = tested on: ACHN renal
# MCF7 breast = tested on: MCF7 breast
# COLO 205 colon = tested on: COLO 205 colon
# T-47D breast = tested on: T-47D breast
# K-562 leukemia = tested on: K-562 leukemia
# HCT-116 colon = tested on: HCT-116 colon
# SF-295 CNS = tested on: SF-295 CNS
# SN12C renal = tested on: SN12C renal
# IGROV1 ovarian = tested on: IGROV1 ovarian
# HOP-62 NSCLC = tested on: HOP-62 NSCLC
# NCI-H23 lung = tested on: NCI-H23 lung
# SK-MEL-28 melanoma = tested on: SK-MEL-28 melanoma
# DU-145 prostate = tested on: DU-145 prostate
# U251 CNS = tested on: U251 CNS
# OVCAR-8 ovarian = tested on: OVCAR-8 ovarian
# HT29 colon = tested on: HT29 colon
# OVCAR-5 ovarian = tested on: OVCAR-5 ovarian
# PC-3 prostate = tested on: PC-3 prostate
# HOP-92 NSCLC = tested on: HOP-92 NSCLC
# SK-MEL-2 melanoma = tested on: SK-MEL-2 melanoma
# SR leukemia = tested on: SR leukemia
# TK-10 renal = tested on: TK-10 renal
# HL-60(TB) leukemia = tested on: HL-60(TB) leukemia
# UO-31 renal = tested on: UO-31 renal
# HCT-15 colon = tested on: HCT-15 colon
# SNB-19 CNS = tested on: SNB-19 CNS
# SK-OV-3 ovarian = tested on: SK-OV-3 ovarian
# UACC-62 melanoma = tested on: UACC-62 melanoma
# NCI-H522 lung = tested on: NCI-H522 lung
# RPMI-8226 leukemia = tested on: RPMI-8226 leukemia
# SF-268 CNS = tested on: SF-268 CNS
# NCI-H226 lung = tested on: NCI-H226 lung
# MOLT-4 leukemia = tested on: MOLT-4 leukemia
# SK-MEL-5 melanoma = tested on: SK-MEL-5 melanoma
# UACC-257 melanoma = tested on: UACC-257 melanoma
# A549 NSCLC = tested on: A549 NSCLC
# SF-539 CNS = tested on: SF-539 CNS
# MDA-MB-231 breast = tested on: MDA-MB-231 breast
# HCC-2998 colon = tested on: HCC-2998 colon
# CAKI-1 renal = tested on: CAKI-1 renal
# CCRF-CEM leukemia = tested on: CCRF-CEM leukemia
# MDA-MB-435 = tested on: MDA-MB-435
smiles,measurement,setting,value
N/C(=N\S(=O)(=O)c1ccc(-c2ncccc2C(F)(F)F)s1)Nc1ccc(Cl)cc1,TGI,OVCAR-4 ovarian,42.9 µM
same,TGI,EKVX NSCLC,19 µM
same,TGI,A498 renal,30.7 µM
same,TGI,SNB-75 CNS,40 µM
same,TGI,HS 578T breast,40.5 µM
same,TGI,M14 melanoma,31.2 µM
same,TGI,BT-549 breast,29 µM
same,TGI,NCI/ADR-RES ovarian,41.1 µM
same,TGI,LOX IMVI melanoma,29.8 µM
same,TGI,RXF 393 renal,41.5 µM
same,TGI,NCI-H460 lung,25.9 µM
same,TGI,KM12 colon,81.2 µM
same,TGI,OVCAR-3 ovarian,38.7 µM
same,TGI,MALME-3M melanoma,30.1 µM
same,TGI,SW-620 colon,35.6 µM
same,TGI,786-0 renal,34.7 µM
same,TGI,ACHN renal,30 µM
same,TGI,MCF7 breast,30 µM
same,TGI,COLO 205 colon,> 100 µM
same,TGI,T-47D breast,48.3 µM
same,TGI,K-562 leukemia,63.8 µM
same,TGI,HCT-116 colon,32.5 µM
same,TGI,SF-295 CNS,31.6 µM
same,TGI,SN12C renal,38.3 µM
same,TGI,IGROV1 ovarian,27.8 µM
same,TGI,HOP-62 NSCLC,38.3 µM
same,TGI,NCI-H23 lung,27.5 µM
same,TGI,SK-MEL-28 melanoma,34.4 µM
same,TGI,DU-145 prostate,36.4 µM
same,TGI,U251 CNS,25.8 µM
same,TGI,OVCAR-8 ovarian,29.7 µM
same,TGI,HT29 colon,39.3 µM
same,TGI,OVCAR-5 ovarian,44 µM
same,TGI,PC-3 prostate,25.8 µM
same,TGI,HOP-92 NSCLC,30 µM
same,TGI,SK-MEL-2 melanoma,29.3 µM
same,TGI,SR leukemia,46.4 µM
same,TGI,TK-10 renal,26.2 µM
same,TGI,HL-60(TB) leukemia,46.4 µM
same,TGI,UO-31 renal,38.4 µM
same,TGI,HCT-15 colon,32.2 µM
same,TGI,SNB-19 CNS,34.4 µM
same,TGI,SK-OV-3 ovarian,33.7 µM
same,TGI,UACC-62 melanoma,23.3 µM
same,TGI,NCI-H522 lung,23.6 µM
same,TGI,RPMI-8226 leukemia,> 100 µM
same,TGI,SF-268 CNS,31.5 µM
same,TGI,NCI-H226 lung,41.4 µM
same,TGI,MOLT-4 leukemia,53.7 µM
same,TGI,SK-MEL-5 melanoma,> 100 µM
same,TGI,UACC-257 melanoma,14 µM
same,TGI,A549 NSCLC,36.7 µM
same,TGI,SF-539 CNS,> 100 µM
same,TGI,MDA-MB-231 breast,27.2 µM
CCOC(=O)c1sc(NC(=O)COc2cccc(/C=C3\CCc4cc(OC)ccc4C3=O)c2)nc1C,GI50,HCC-2998 colon,8.59 µM
same,TGI,HCC-2998 colon,38.8 µM
same,GI50,OVCAR-4 ovarian,9.07 µM
same,TGI,OVCAR-4 ovarian,> 100 µM
same,GI50,EKVX NSCLC,74 µM
same,TGI,EKVX NSCLC,> 100 µM
same,GI50,A498 renal,16.3 µM
same,TGI,A498 renal,76.6 µM
same,GI50,SNB-75 CNS,2.51 µM
same,TGI,SNB-75 CNS,> 100 µM
same,GI50,HS 578T breast,3.94 µM
same,TGI,HS 578T breast,49.7 µM
same,GI50,M14 melanoma,7.95 µM
same,TGI,M14 melanoma,> 100 µM
same,GI50,BT-549 breast,3.26 µM
same,TGI,BT-549 breast,> 100 µM
same,GI50,NCI/ADR-RES ovarian,4.84 µM
same,TGI,NCI/ADR-RES ovarian,> 100 µM
same,GI50,LOX IMVI melanoma,3.87 µM
same,TGI,LOX IMVI melanoma,15.7 µM
same,GI50,RXF 393 renal,2.83 µM
same,TGI,RXF 393 renal,8.44 µM
same,GI50,NCI-H460 lung,3.19 µM
same,TGI,NCI-H460 lung,13.8 µM
same,GI50,KM12 colon,2.3 µM
same,TGI,KM12 colon,5.12 µM
same,GI50,OVCAR-3 ovarian,3.19 µM
same,TGI,OVCAR-3 ovarian,6.71 µM
same,GI50,MALME-3M melanoma,47 µM
same,TGI,MALME-3M melanoma,> 100 µM
same,GI50,SW-620 colon,3.79 µM
same,TGI,SW-620 colon,13.3 µM
same,GI50,786-0 renal,17 µM
same,TGI,786-0 renal,> 100 µM
same,GI50,ACHN renal,6 µM
same,TGI,ACHN renal,> 100 µM
same,GI50,MCF7 breast,3.03 µM
same,TGI,MCF7 breast,> 100 µM
same,GI50,COLO 205 colon,8.49 µM
same,TGI,COLO 205 colon,43.4 µM
same,GI50,T-47D breast,3.75 µM
same,TGI,T-47D breast,> 100 µM
same,GI50,K-562 leukemia,1.94 µM
same,TGI,K-562 leukemia,6.26 µM
same,GI50,HCT-116 colon,3.18 µM
same,TGI,HCT-116 colon,> 100 µM
same,GI50,SF-295 CNS,5.45 µM
same,TGI,SF-295 CNS,> 100 µM
same,GI50,SN12C renal,3.89 µM
same,TGI,SN12C renal,> 100 µM
same,GI50,IGROV1 ovarian,3.02 µM
same,TGI,IGROV1 ovarian,21 µM
same,GI50,HOP-62 NSCLC,18.2 µM
same,TGI,HOP-62 NSCLC,55.2 µM
same,GI50,NCI-H23 lung,15.8 µM
same,TGI,NCI-H23 lung,> 100 µM
same,GI50,SK-MEL-28 melanoma,18.2 µM
same,TGI,SK-MEL-28 melanoma,> 100 µM
same,GI50,DU-145 prostate,1.86 µM
same,TGI,DU-145 prostate,3.81 µM
same,GI50,U251 CNS,2.98 µM
same,TGI,U251 CNS,9.13 µM
same,GI50,OVCAR-8 ovarian,4.59 µM
same,TGI,OVCAR-8 ovarian,25.3 µM
same,GI50,CAKI-1 renal,7.16 µM
same,TGI,CAKI-1 renal,> 100 µM
same,GI50,HT29 colon,3.71 µM
same,TGI,HT29 colon,> 100 µM
same,GI50,OVCAR-5 ovarian,13.5 µM
same,TGI,OVCAR-5 ovarian,> 100 µM
same,GI50,HOP-92 NSCLC,16.9 µM
same,TGI,HOP-92 NSCLC,36.9 µM
same,GI50,SK-MEL-2 melanoma,5.38 µM
same,TGI,SK-MEL-2 melanoma,> 100 µM
same,GI50,CCRF-CEM leukemia,1.26 µM
same,TGI,CCRF-CEM leukemia,4.3 µM
same,GI50,TK-10 renal,21.7 µM
same,TGI,TK-10 renal,> 100 µM
same,GI50,HL-60(TB) leukemia,1.94 µM
same,TGI,HL-60(TB) leukemia,4.92 µM
same,GI50,UO-31 renal,5.99 µM
same,TGI,UO-31 renal,> 100 µM
same,GI50,HCT-15 colon,2.93 µM
same,TGI,HCT-15 colon,> 100 µM
same,GI50,MDA-MB-435,2.25 µM
same,TGI,MDA-MB-435,> 100 µM
same,GI50,SNB-19 CNS,2.78 µM
same,TGI,SNB-19 CNS,> 100 µM
same,GI50,SK-OV-3 ovarian,6.39 µM
same,TGI,SK-OV-3 ovarian,> 100 µM
same,GI50,UACC-62 melanoma,5.43 µM
same,TGI,UACC-62 melanoma,> 100 µM
same,GI50,NCI-H522 lung,3.6 µM
same,TGI,NCI-H522 lung,> 100 µM
same,GI50,RPMI-8226 leukemia,1.2 µM
same,TGI,RPMI-8226 leukemia,3.38 µM
same,GI50,SF-268 CNS,3.21 µM
same,TGI,SF-268 CNS,12.3 µM
same,GI50,NCI-H226 lung,28.3 µM
same,TGI,NCI-H226 lung,> 100 µM
same,GI50,MOLT-4 leukemia,2.94 µM
same,TGI,MOLT-4 leukemia,12.2 µM
same,GI50,SK-MEL-5 melanoma,2.65 µM
same,TGI,SK-MEL-5 melanoma,13.3 µM
same,GI50,UACC-257 melanoma,9.79 µM
same,TGI,UACC-257 melanoma,> 100 µM
same,GI50,A549 NSCLC,34.7 µM
same,TGI,A549 NSCLC,> 100 µM
same,GI50,SF-539 CNS,2.1 µM
same,TGI,SF-539 CNS,7.58 µM
same,GI50,MDA-MB-231 breast,10.1 µM
same,TGI,MDA-MB-231 breast,> 100 µM
